Laboratory results published in DBAASP.
Values after ≈ are worked out from the molar mass of the structure shown. One block for each molecule: values may come before it.

Assays:
Assay in all cases: ≥ marks a high value that may be exact or a test limit, other limits are often not marked, values filed in µg/mL are converted to µM
[1] = tested on: Escherichia coli ATCC 25922
[2] = tested on: Mycobacterium tuberculosis
[3] = tested on: Staphylococcus aureus ATCC 25923
[4] = tested on: Mycobacterium tuberculosis H37Rv
Candida albicans = tested on: Candida albicans
Candida glabrata = tested on: Candida glabrata
Streptococcus agalactiae = tested on: Streptococcus agalactiae
[5] = tested on: Pseudomonas aeruginosa ATCC 9027
[6] = tested on: Mycobacterium tuberculosis FYX
[7] = tested on: Mycobacterium tuberculosis CAS3
[8] = tested on: Mycobacterium tuberculosis WXY
Aerococcus viridans = tested on: Aerococcus viridans
Escherichia coli D31 = tested on: Escherichia coli D31
Alternaria brassicicola = tested on: Alternaria brassicicola
Escherichia coli D22 = tested on: Escherichia coli D22
Bacillus megaterium = tested on: Bacillus megaterium
Micrococcus luteus = tested on: Micrococcus luteus
Klebsiella pneumoniae = tested on: Klebsiella pneumoniae
Fusarium culmorum = tested on: Fusarium culmorum
Botrytis cinerea = tested on: Botrytis cinerea
Neurospora crassa = tested on: Neurospora crassa
[9] = tested on: Klebsiella pneumoniae ATCC 10031
[10] = tested on: Escherichia coli ATCC 11219
[11] = tested on: Staphylococcus aureus ATCC 6538
[12] = tested on: Pseudomonas aeruginosa ATCC 13388
[13] = tested on: Salmonella enterica subsp. enterica serovar Typhimurium ATCC 14028
[14] = tested on: Saccharomyces cerevisiae S288C
[15] = tested on: Acinetobacter baumannii Ab41
Staphylococcus aureus = tested on: Staphylococcus aureus
[16] = tested on: Acinetobacter baumannii AbR-215
[17] = tested on: Escherichia coli ATCC 8739
Escherichia coli IS218# = tested on: Escherichia coli IS218#
[18] = tested on: Klebsiella pneumoniae IS59#
Escherichia coli IS37# = tested on: Escherichia coli IS37#
[19] = tested on: Pseudomonas aeruginosa ATCC 27853
[20] = tested on: Pseudomonas aeruginosa CMCCB 1010
[21] = tested on: Candida albicans ATCC 90028
Shigella dysenteriae = tested on: Shigella dysenteriae
[22] = tested on: Enterobacter cloacae ATCC 13047
[23] = tested on: Candida albicans ATCC 2002
Escherichia coli IS117# = tested on: Escherichia coli IS117#
[24] = tested on: Enterococcus faecalis ATCC 29212
[25] = tested on: Candida parapsilosis ATCC 22019
[26] = tested on: Staphylococcus aureus IS37#
[27] = tested on: Pseudomonas aeruginosa IS350#
[28] = tested on: Staphylococcus aureus IS10#
[29] = tested on: Klebsiella pneumoniae ATCC 700603

MIC [1]: 24 µM (≈ 49.7 µg/mL)
MIC [2]: 4.8 µM (≈ 9.94 µg/mL)
MIC [3]: 2.5 µM (≈ 5.18 µg/mL)
MIC [4]: 17.4 µM (≈ 36 µg/mL)
MIC (Candida albicans): 6.25 µM (≈ 12.9 µg/mL)
MIC (Candida glabrata): ≥ 50 µM
MIC (Streptococcus agalactiae): 2.5 µM (≈ 5.18 µg/mL)
MIC [5]: 2.5 µM (≈ 5.18 µg/mL)
Structure (SMILES): CC[C@H](C)[C@H](NC(=O)[C@H](CCCCN)NC(=O)[C@H](CCCCN)NC(=O)[C@@H](NC(=O)[C@H](C)NC(=O)[C@H](CO)NC(=O)[C@@H](NC(=O)[C@H](C)NC(=O)[C@H](CO)NC(=O)[C@@H]1CCCN1C(=O)[C@@H](NC(=O)[C@H](CC(C)C)NC(=O)[C@H](CO)NC(=O)[C@H](CC(C)C)NC(=O)[C@H](CC(C)C)NC(=O)[C@H](Cc1ccccc1)NC(=O)[C@H](Cc1ccccc1)NC(=O)[C@@H]1CCCN1C(=O)[C@@H](N)CC(C)C)[C@@H](C)CC)[C@@H](C)CC)[C@@H](C)CC)C(N)=O [LPFFLLSLIPSAISAIKKI]

MIC [14]: ≥ 40 µM
Structure (SMILES): CC(C)C[C@H](NC(=O)[C@H](CC(N)=O)NC(=O)[C@H](Cc1c[nH]c2ccccc12)NC(=O)[C@@H](NC(=O)CNC(=O)CNC(=O)[C@H](CCCN=C(N)N)NC(=O)[C@H](CC(=O)O)NC(=O)[C@H](CC(C)C)NC(=O)[C@H](CCCN=C(N)N)NC(=O)[C@@H](N)CCCN=C(N)N)C(C)C)C(=O)N[C@@H](CC(N)=O)C(=O)N[C@H](C(=O)N[C@@H](CC(N)=O)C(=O)N1CCC[C@H]1C(=O)NCC(=O)N[C@H](C(=O)N[C@H](C(=O)NCC(=O)N[C@@H](C)C(=O)N[C@@H](CCCN=C(N)N)C(=O)N[C@H](C(=O)N[C@@H](Cc1c[nH]c2ccccc12)C(=O)N[C@@H](C)C(=O)N[C@@H](CCCN=C(N)N)C(=O)N[C@H](C(=O)N[C@@H](CCCCN)C(N)=O)[C@@H](C)O)C(C)C)[C@@H](C)O)[C@@H](C)O)C(C)C [RRLDRGGVWNLNVNPGTTGARVWARTK]

MIC [15]: 3.2 µM (≈ 8.06 µg/mL)
MIC (Staphylococcus aureus): ≥ 80.6 µM
MIC [16]: 3.2 µM (≈ 8.06 µg/mL)
MIC [17]: 3.2 µM (≈ 8.06 µg/mL)
Structure (SMILES): CC(C)C[C@H](NC(=O)[C@H](CCCCN)NC(=O)[C@H](C)NC(=O)[C@H](C)NC(=O)[C@H](C)NC(=O)[C@H](C)NC(=O)[C@H](C)NC(=O)[C@H](C)NC(=O)[C@H](CCCCN)NC(=O)[C@H](CC(C)C)NC(=O)[C@H](C)NC(=O)[C@H](C)NC(=O)[C@H](CCCCN)NC(=O)[C@H](C)NC(=O)[C@H](C)NC(=O)[C@H](CCCCN)NC(=O)[C@H](C)NC(=O)[C@H](C)NC(=O)[C@H](CC(C)C)NC(=O)[C@H](CCCCN)NC(=O)[C@H](C)NC(=O)[C@H](C)NC(=O)[C@H](C)NC(=O)[C@H](C)NC(=O)[C@H](C)NC(=O)[C@H](C)NC(=O)[C@H](CCCCN)NC(=O)[C@@H](N)CC(C)C)C(=O)O [LKAAAAAAKLAAKAAKAALKAAAAAAKL]

The next lines start with the molecule.

Structure (SMILES): CSCC[C@H](NC(=O)[C@H](CCCCN)NC(=O)[C@H](CCCCN)NC(=O)[C@H](CC(C)C)NC(=O)[C@H](CC(C)C)NC(=O)[C@H](CCCCN)NC(=O)[C@H](CCCCN)NC(=O)[C@H](CC(C)C)NC(=O)[C@H](CC(C)C)NC(=O)[C@@H](N)CCSC)C(=O)O [MLLKKLLKKM]
MIC [6]: ≥ 60.2 µM
MIC [7]: ≥ 120 µM
MIC [8]: ≥ 60.2 µM

Structure (SMILES): CC[C@H](C)[C@H](N)C(=O)N[C@H](C(=O)N[C@@H](Cc1ccc(O)cc1)C(=O)N[C@H]1CSSC[C@@H](C(=O)N[C@@H](CCC(N)=O)C(=O)N[C@@H](CCCN=C(N)N)C(=O)N[C@@H](CCSC)C(=O)O)NC(=O)[C@H](CCCCN)NC(=O)CNC(=O)[C@H]([C@@H](C)O)NC(=O)[C@H](CCCN=C(N)N)NC(=O)[C@H](CCCN=C(N)N)NC(=O)[C@H](CC(N)=O)NC1=O)[C@@H](C)CC [IIYCNRRTGKCQRM]
MIC (Aerococcus viridans): 1.73 µM (≈ 3.01 µg/mL)
MIC (Escherichia coli D31): 28.3 µM (≈ 49.2 µg/mL)
MIC (Alternaria brassicicola): 7.07 µM (≈ 12.3 µg/mL)
MIC (Escherichia coli D22): 28.3 µM (≈ 49.2 µg/mL)
MIC (Bacillus megaterium): 14.1 µM (≈ 24.6 µg/mL)
MIC (Micrococcus luteus): 7.07 µM (≈ 12.3 µg/mL)
MIC (Klebsiella pneumoniae): 28.3 µM (≈ 49.2 µg/mL)
MIC (Fusarium culmorum): 28.3 µM (≈ 49.2 µg/mL)
MIC (Botrytis cinerea): 14.1 µM (≈ 24.6 µg/mL)
MIC (Neurospora crassa): 28.3 µM (≈ 49.2 µg/mL)

Structure (SMILES): CC[C@H](C)[C@H](NC(=O)[C@H](CC(=O)O)NC(=O)[C@H](Cc1cnc[nH]1)NC(=O)[C@H](C)NC(=O)CN)C(=O)N[C@@H](CC(C)C)C(=O)N[C@@H](CCCCN)C(=O)N[C@@H](Cc1ccc(O)cc1)C(=O)NCC(=O)N[C@@H](CCCCN)C(=O)N1CCC[C@H]1C(=O)N[C@@H](CO)C(N)=O [GAHDILKYGKPS]
MIC [9]: ≥ 50 µM
MIC [10]: ≥ 50 µM
MIC [11]: 30 µM (≈ 38.5 µg/mL)
MIC [12]: ≥ 50 µM
MIC [13]: > 50 µM

Structure (SMILES): CC[C@H](C)[C@H](NC(=O)CNC(=O)[C@H](CO)NC(=O)[C@H](CC(C)C)NC(=O)[C@H](CC(C)C)NC(=O)CN)C(=O)N[C@@H](CC(C)C)C(=O)NCC(=O)N[C@@H](C)C(=O)NCC(=O)N[C@@H](CCCCN)C(=O)N[C@@H](CCCN=C(N)N)C(=O)N[C@H](C(=O)N[C@H](C(=O)N[C@H]1CSSC[C@@H](C(=O)O)NC(=O)[C@H](CC(C)C)NC(=O)CNC(=O)[C@H](CO)NC(=O)[C@H](CC(C)C)NC(=O)CNC1=O)C(C)C)[C@@H](C)CC [GLLSGILGAGKRIVCGLSGLC]
MIC [1]: 2.52 µM (≈ 5 µg/mL)
MIC (Escherichia coli IS218#): 10.1 µM (≈ 20 µg/mL)
MIC [18]: 10.1 µM (≈ 20 µg/mL)
MIC (Escherichia coli IS37#): 5.03 µM (≈ 9.99 µg/mL)
MIC [19]: 5.03 µM (≈ 9.99 µg/mL)
MIC [20]: 0.503 µM (≈ 0.999 µg/mL)
MIC [21]: 1.26 µM (≈ 2.5 µg/mL)
MIC (Shigella dysenteriae): 5.03 µM (≈ 9.99 µg/mL)
MIC [22]: 2.52 µM (≈ 5 µg/mL)
MIC [3]: 5.03 µM (≈ 9.99 µg/mL)
MIC [23]: 1.01 µM (≈ 2 µg/mL)
MIC (Escherichia coli IS117#): 5.03 µM (≈ 9.99 µg/mL)
MIC [24]: 5.03 µM (≈ 9.99 µg/mL)
MIC [25]: 2.52 µM (≈ 5 µg/mL)
MIC [26]: 5.03 µM (≈ 9.99 µg/mL)
MIC [27]: 10.1 µM (≈ 20 µg/mL)
MIC [28]: 2.52 µM (≈ 5 µg/mL)
MIC [29]: 0.503 µM (≈ 0.999 µg/mL)
